Target: alkaline phosphatase (Bos taurus, UniProt P19111)
Test: Solvent screen, visual colour change in PNPP
Details: 200 μL of the solvent into 2 mL of PNPP; 1-hour
Description: The results were not quantified with the spectrophotometer but the color change was visually observed. […] Two different dosing concentrations were evaluated, 10 μL of test chemical added to 90 μL of alkaline phosphatase reaction reagent and 50 μL of test chemical added to 50 μL of alkaline phosphatase reaction reagent; all aliquoted in 96-well plates.

Chain of alkaline phosphatase (P19111 20-506): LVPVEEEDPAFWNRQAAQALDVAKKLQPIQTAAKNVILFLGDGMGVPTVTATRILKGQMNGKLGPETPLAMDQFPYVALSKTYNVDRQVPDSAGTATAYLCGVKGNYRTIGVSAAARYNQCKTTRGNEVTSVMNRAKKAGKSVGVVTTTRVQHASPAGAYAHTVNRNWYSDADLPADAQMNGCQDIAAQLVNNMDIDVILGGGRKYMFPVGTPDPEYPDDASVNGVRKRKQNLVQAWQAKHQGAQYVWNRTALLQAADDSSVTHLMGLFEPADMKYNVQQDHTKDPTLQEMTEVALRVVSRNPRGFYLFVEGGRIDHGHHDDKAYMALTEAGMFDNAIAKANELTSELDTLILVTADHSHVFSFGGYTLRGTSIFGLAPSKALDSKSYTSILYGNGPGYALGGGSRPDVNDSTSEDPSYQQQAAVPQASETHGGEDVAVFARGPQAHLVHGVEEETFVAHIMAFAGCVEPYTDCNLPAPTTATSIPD

Compound | color change visually observed
CC(C)=O [acetone] | brightest yellow intensity
C[S+](C)[O-] [dimethyl sulfoxide] | no response (clear)
CCO [ethanol] | brightest yellow intensity
CO [methanol] | lesser yellow intensity
